Assay results reported in PMC5569033 (2017).

Experiments:
[1] = system: Spinach2-Streptavidin aptamer (Streptavidin (SA)) (RNA, aptamer) GAUGUAACUGAAUGAAAUGGUGAAGGACGGGUCCACGACCGACCAGAAUCAUGCAAGUGCGUAAGAUAGUCGCGGGCCGGGGUUGUUGAGUAGAGUGUGAGCUCCGUAACUAGUUACAUC; assay: dye fluorescence, plate reader; conditions: 200 mM KCl, 10 mM NaCl, 1 mM MgCl2; 100 mM Tris pH 7.5, 25 °C, 14 h; 10 μM RNA, 2 μM dye; with streptavidin
[2] = system: Tyr1M1 (RNA, aptamer) GGAUGUAACUGAAUGAAAUGGUGAAGGACGGGUCCAGCCCUUGGCAGUCAACUCGUGCGAUCGUGAAAACGGGGCAAGAUGGCCUUACAGCGGUCAAUACGGGGGUCAUCAGAUAGGGAGGCCAGGAUAUGUUGAGUAGAGUGUGAGCUCCGUAACUAGUUACAUC; assay: dye fluorescence in droplets; conditions: 200 mM KCl, 10 mM NaCl, 10 mM MgCl2; 100 mM Tris pH 7.5; 30 μM RNA, 3 μM dye; salmon sperm DNA; with secreted tyrosine
[3] = system: Tyr1M1 (RNA, aptamer) GGAUGUAACUGAAUGAAAUGGUGAAGGACGGGUCCAGCCCUUGGCAGUCAACUCGUGCGAUCGUGAAAACGGGGCAAGAUGGCCUUACAGCGGUCAAUACGGGGGUCAUCAGAUAGGGAGGCCAGGAUAUGUUGAGUAGAGUGUGAGCUCCGUAACUAGUUACAUC; assay: Spinach sensor fluorescence turn-on; conditions: 125 mM KCl, 5 mM MgCl2; 50 mM Tris-HCl pH 7.5; 2 μM DFHBI or DFHBI-1T; 1 mM ligand; 10 μM RNA

Compound	binding [1]	binding [2]	binding [3]
CC1=N/C(=C\c2cc(F)c(O)c(F)c2)C(=O)N1CC(F)(F)F	yes	yes	–
N[C@@H](Cc1ccc(O)cc1)C(=O)O	–	–	yes
